The test system of assay [1] is Prunus dulcis. As to the kind of experiment: Percent inhibition against Alpha-mannosidase of Almonds at 1 mM.
The target of assay [2] is Beta-galactosidase (Escherichia coli) (UniProt Q8VNN2). As to the kind of experiment: Inhibitory activity against Beta-D-galactosidase of Escherichia coli at 1 mM; No inhibition.
Assay [3] concerns the target T1, Beta-galactosidase (Bos taurus) (UniProt Q58D55).
T1 sequence (whole entry): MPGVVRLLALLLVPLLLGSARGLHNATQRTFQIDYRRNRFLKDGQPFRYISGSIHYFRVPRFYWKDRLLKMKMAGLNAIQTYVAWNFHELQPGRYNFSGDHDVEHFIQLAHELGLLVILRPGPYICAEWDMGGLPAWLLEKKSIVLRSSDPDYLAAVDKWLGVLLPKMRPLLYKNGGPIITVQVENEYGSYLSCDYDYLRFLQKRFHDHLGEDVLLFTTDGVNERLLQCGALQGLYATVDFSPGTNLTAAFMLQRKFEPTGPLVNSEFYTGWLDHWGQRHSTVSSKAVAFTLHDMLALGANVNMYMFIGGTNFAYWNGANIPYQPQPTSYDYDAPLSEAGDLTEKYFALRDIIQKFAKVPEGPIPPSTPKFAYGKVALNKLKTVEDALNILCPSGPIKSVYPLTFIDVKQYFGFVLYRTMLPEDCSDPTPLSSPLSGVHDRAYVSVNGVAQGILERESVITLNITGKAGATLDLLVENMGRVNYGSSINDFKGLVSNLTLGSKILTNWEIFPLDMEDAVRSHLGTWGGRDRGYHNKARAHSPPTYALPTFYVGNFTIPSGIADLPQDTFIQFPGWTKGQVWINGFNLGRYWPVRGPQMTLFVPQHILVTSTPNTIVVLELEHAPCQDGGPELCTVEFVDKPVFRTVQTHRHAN
As to the kind of experiment: Percent inhibition against Beta-D-galactosidase of bovine liver at 1 mM.

Assay [4] has as its system Canavalia ensiformis. As to the kind of experiment: Percent inhibition against Alpha-mannosidase of Jack bean at 1 mM.
Assay [5] has as its target Glucoamylase (Aspergillus niger) (UniProt P69328). Put plainly: Inhibitory activity against Amyloglucosidase of Aspergillus niger at 1 mM; No inhibition.
Assay [6] has as its target T2, Beta-galactosidase (Aspergillus niger) (UniProt P29853).
T2 sequence (whole entry): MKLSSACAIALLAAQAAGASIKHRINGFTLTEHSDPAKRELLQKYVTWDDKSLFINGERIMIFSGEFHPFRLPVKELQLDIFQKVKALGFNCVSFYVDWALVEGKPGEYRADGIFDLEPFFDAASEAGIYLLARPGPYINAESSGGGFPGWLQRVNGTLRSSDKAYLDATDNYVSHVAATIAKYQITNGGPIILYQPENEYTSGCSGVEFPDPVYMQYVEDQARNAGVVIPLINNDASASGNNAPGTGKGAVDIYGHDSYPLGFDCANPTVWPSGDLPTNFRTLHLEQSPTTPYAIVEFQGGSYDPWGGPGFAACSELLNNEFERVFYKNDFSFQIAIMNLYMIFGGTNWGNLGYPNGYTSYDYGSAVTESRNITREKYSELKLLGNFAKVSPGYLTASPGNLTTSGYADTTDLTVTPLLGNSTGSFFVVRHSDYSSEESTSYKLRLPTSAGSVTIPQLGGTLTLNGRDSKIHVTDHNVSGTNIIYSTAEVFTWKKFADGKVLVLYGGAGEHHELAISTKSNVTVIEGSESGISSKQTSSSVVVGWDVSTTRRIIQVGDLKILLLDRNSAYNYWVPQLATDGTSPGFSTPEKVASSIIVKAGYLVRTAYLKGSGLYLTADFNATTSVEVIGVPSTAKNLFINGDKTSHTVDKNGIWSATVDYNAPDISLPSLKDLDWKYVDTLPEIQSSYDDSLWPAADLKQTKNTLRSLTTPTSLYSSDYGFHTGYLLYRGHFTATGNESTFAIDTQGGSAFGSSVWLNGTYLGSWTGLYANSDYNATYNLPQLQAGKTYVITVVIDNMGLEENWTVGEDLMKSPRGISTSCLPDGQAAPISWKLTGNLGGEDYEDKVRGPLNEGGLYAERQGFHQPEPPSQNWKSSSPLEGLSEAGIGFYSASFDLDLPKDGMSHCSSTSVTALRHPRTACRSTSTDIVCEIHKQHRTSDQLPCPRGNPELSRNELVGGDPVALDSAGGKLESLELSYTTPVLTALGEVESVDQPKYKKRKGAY
As to the kind of experiment: Inhibitory activity against Beta-D-galactosidase of Aspergillus niger at 1 mM; No inhibition.

Assay [7] concerns the target T3, Tissue alpha-L-fucosidase (Homo sapiens) (UniProt P04066).
T3 sequence (whole entry): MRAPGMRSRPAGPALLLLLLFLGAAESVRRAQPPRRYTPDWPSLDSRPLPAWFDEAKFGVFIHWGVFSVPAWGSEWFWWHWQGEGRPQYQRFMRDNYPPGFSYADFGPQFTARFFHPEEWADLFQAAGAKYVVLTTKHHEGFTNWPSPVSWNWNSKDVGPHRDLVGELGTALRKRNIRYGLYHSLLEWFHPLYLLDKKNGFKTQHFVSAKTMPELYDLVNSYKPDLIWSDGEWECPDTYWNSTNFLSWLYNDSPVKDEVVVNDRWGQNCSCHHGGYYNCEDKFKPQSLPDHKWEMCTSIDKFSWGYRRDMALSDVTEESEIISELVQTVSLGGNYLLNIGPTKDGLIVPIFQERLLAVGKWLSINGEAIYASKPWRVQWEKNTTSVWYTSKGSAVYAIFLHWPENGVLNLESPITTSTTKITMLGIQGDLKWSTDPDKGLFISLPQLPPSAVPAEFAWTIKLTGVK
Put plainly: Percent inhibition against alpha-L-Fucosidase of human placenta at 1 mM.

In assay [8] the target is T2, Beta-galactosidase (Aspergillus niger). Conditions: 1 mM.
Description: Percent inhibition against Beta-D-galactosidase of Aspergillus niger at 1 mM
Assay [9] relates to Prunus dulcis. As to the kind of experiment: Inhibitory activity against Alpha-mannosidase of Almonds at 1 mM; No inhibition.
Assay [10] relates to Prunus dulcis. Put plainly: Inhibitory activity against Beta-glucosidase of almonds at 1 mM; No inhibition.
The test system of assay [11] is Beta-N-acetylglucosaminidase (Bos taurus). As to the kind of experiment: Inhibitory activity against Beta-N-acetylglucosaminidase of bovine epididymis B at 1 mM; No inhibition.
Assay [12] relates to maltase (Oryza sativa). As to the kind of experiment: Inhibitory activity against maltase of rice at 1 mM; No inhibition.
The test system of assay [13] is Escherichia coli. As to the kind of experiment: Inhibitory activity against Alpha-galactosidase of Escherichia coli at 1 mM; No inhibition.
Assay [14] concerns Beta-N-acetylglucosaminidase (Canavalia ensiformis). As to the kind of experiment: Inhibitory activity against Beta-N-acetylglucosaminidase of Jack bean at 1 mM; No inhibition.
Assay [15] has as its system Canavalia ensiformis. As to the kind of experiment: Inhibitory activity against Alpha-mannosidase of Jack bean at 1 mM; No inhibition.
The test system of assay [16] is Aspergillus oryzae. Put plainly: Inhibitory activity against Beta-D-galactosidase of Aspergillus oryzae at 1 mM; No inhibition.
For assay [17], the system named is Beta-N-acetylglucosaminidase (Bos taurus). Put plainly: Inhibitory activity against Beta-N-acetylglucosaminidase of bovine epididymis A at 1 mM; No inhibition.
For assay [18], the species on record is Gallus gallus. Put plainly: Inhibitory activity against alpha-N-acetylgalactosaminidase of chicken liver at 1 mM; No inhibition.
Assay [19] concerns Helix pomatia. Put plainly: Inhibitory activity against Beta-mannosidase of Helix pomatia at 1 mM; No inhibition.
For assay [20], the target named is T3, Tissue alpha-L-fucosidase (Homo sapiens). As to the kind of experiment: Inhibitory activity against alpha-L-Fucosidase of human placenta at 1 mM; No inhibition.
For assay [21], the system named is Aspergillus niger. Put plainly: Inhibitory activity against Alpha-galactosidase of Aspergillus niger at 1 mM; No inhibition.
For assay [22], the species on record is Bos taurus. As to the kind of experiment: Inhibitory activity against alpha-L-Fucosidase of bovine epididymis at 1 mM; No inhibition.
The subject of assay [23] is Coffea arabica. Put plainly: Inhibitory activity against Alpha-galactosidase of coffee bean at 1 mM; No inhibition.
Assay [24] has as its system Rhizopus. Put plainly: Inhibitory activity against Amyloglucosidase of Rhizopus mold at 1 mM; No inhibition.
Assay [25] has as its system Canavalia ensiformis. As to the kind of experiment: Inhibitory activity against Beta-D-galactosidase of Jack bean at 1 mM; No inhibition.
Assay [26] concerns isomaltase (Saccharomyces cerevisiae). Put plainly: Inhibitory activity against isomaltase of baker yeast at 1 mM; No inhibition.
Assay [27] has as its system Caldicellulosiruptor saccharolyticus. Put plainly: Inhibitory activity against Beta-glucosidase of Caldocellum saccharolyticum at 1 mM; No inhibition.
The subject of assay [28] is maltase (Saccharomyces cerevisiae). Put plainly: Inhibitory activity against maltase of yeast at 1 mM; No inhibition.
Assay [29] concerns maltase (Oryza sativa). As to the kind of experiment: Inhibitory activity against maltase of rice at 1 mM.
Assay [30] deals with Glucoamylase (Aspergillus niger) (UniProt P69328). As to the kind of experiment: Percent inhibition against Amyloglucosidase of Aspergillus niger at 1 mM.

Active and inactive are the calls of the source. The rule behind the calls is not given here.

As usually defined, the inhibition is the drop in the measured response relative to a control, in per cent.

Chain of Glucoamylase (Aspergillus niger) (P69328 whole entry): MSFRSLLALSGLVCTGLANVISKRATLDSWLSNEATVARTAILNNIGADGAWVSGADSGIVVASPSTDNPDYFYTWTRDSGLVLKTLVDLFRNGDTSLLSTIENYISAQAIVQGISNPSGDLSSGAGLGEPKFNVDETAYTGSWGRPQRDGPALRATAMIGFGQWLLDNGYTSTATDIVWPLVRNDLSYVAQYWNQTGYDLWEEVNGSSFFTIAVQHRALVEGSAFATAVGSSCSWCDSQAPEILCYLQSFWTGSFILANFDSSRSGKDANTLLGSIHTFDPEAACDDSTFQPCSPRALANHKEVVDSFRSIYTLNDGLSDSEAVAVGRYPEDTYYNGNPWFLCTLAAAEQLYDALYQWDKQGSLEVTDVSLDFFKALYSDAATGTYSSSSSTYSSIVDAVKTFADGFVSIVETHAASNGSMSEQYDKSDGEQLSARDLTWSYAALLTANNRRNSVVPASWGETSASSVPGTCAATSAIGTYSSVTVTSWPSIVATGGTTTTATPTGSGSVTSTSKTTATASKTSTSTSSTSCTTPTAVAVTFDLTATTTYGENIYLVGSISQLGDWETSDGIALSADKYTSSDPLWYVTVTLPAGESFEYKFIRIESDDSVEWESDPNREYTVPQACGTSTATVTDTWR
Chain of Beta-galactosidase (Escherichia coli) (Q8VNN2 whole entry, looked up): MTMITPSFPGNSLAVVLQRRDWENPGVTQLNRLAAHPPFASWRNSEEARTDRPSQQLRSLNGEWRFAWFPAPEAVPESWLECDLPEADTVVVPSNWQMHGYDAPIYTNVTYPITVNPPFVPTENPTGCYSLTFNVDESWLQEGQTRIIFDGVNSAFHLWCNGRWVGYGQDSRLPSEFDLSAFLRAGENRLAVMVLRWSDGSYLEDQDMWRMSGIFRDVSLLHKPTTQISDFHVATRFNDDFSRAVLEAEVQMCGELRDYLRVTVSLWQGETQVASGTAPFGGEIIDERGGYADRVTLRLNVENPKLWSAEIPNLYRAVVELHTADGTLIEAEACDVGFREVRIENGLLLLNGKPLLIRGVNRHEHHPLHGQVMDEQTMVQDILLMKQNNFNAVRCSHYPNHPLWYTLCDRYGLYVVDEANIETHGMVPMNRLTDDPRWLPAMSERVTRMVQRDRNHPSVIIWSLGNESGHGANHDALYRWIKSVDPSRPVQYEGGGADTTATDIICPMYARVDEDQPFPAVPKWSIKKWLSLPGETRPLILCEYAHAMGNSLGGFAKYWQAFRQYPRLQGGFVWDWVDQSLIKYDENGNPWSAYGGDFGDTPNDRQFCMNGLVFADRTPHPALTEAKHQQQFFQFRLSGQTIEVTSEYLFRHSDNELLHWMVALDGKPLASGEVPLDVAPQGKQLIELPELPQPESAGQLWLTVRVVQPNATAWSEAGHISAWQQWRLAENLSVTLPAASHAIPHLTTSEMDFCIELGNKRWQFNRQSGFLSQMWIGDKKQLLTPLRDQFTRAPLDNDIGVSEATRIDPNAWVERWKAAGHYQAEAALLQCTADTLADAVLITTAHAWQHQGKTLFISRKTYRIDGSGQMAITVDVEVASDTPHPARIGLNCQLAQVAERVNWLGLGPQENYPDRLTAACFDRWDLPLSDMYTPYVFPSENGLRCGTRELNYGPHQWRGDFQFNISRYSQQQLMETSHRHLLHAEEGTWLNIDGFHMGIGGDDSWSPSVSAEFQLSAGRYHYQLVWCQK

In the case of `CCNC(=O)c1cc(C2NCC(O)C2O)oc1C` (configuration not stated), the results for the inhibition in [1], in [3] and in assay [4] were 32%, 52% and 29%, respectively. The inhibition result in assay [2], in [5] and in [6] was “inactive” each time.
On to `CCN(CC)C(=O)c1cc(C2NCC(O)C2O)oc1C` (configuration not stated), for which the inhibition in assay [1] turned out to be 31%; in assay [3], 58%; in assay [4], 27%. For the same compound, the inhibition entry in [2], in assay [5] and in [6] was “inactive” throughout.
In the case of `CCOC(=O)c1cc(C2NCC(O)C2O)oc1C` (configuration not stated), the inhibition in [7] was 76%; in assay [3], 57%; in assay [8], 80%; in assay [4], 38%. Also, the inhibition result in [2], in assay [5] and in [9] was “inactive” throughout.
Turning to `Cc1oc(C2NCC(O)C2O)cc1CO` (configuration not stated), the inhibition result in assay [10], in assay [11], in assay [12], in assay [13], in assay [2] and in [14] was “inactive” in each case. The inhibition result in [15], in [5], in [16], in assay [6], in assay [17] and in assay [18] was “inactive” each time. The inhibition result in [20], in assay [21], in [22], in assay [23], in [24] and in [9] was “inactive” throughout. In addition, the inhibition entry in assay [25], in assay [26] and in [28] was “inactive” each time. Moreover, the results for the inhibition in [3], in assay [19] and in assay [27] were 50%, “No inhibition” and “No inhibition”, respectively.
Regarding `Cc1oc(C2NCC(O)C2O)cc1C(=O)O` (configuration not stated), the inhibition result in assay [10], in [11], in assay [13], in [2], in assay [14] and in assay [15] was “inactive” each time. For the same compound, the inhibition entry in assay [5], in assay [16], in assay [6], in assay [17], in assay [18] and in assay [20] was “inactive” throughout. Besides, the inhibition result in assay [21], in [22], in assay [23], in [24], in assay [9] and in [25] was “inactive” throughout. In addition, the inhibition result in [26] and in assay [28] was “inactive” in each case. Further, the inhibition in [3] is 30%; in assay [29], “No inhibition”; in [19], “No inhibition”; in assay [27], “No inhibition”.
With `Cc1oc(C2NCC(O)C2O)cc1C(=O)NC(C)C` (configuration not stated), the inhibition in assay [1] came to 29%; in assay [3] it was 38%; in [30], 23%. In addition, the inhibition result in [2] and in assay [6] was “inactive” in each case.
